Source: patent publication US9028797B2, “Composite body for antigen or drug delivery” (priority 2010, dated 2015)

Legend:
[1] = test system: dendritic cell line, DC2.4 cell; assay: Cellular uptake of fluorescently labeled BSA, fluorescence microscopy (Example 3); format: cell-based; details: incubated 2 hr, imaged 22 hr later
Method: As a model protein, bovine serum albumin (BSA) was fluorescently labeled with rhodamine B isothiocyanate and used. A BSA/BAC/γ-PGA complex prepared using benzalkonium chloride (BAC) and γ-PGA with BSA or BSA was added to a dendritic cell line, DC2.4 cell, and the mixture was incubated for 2 hr. The cells were washed and fluorescence images of the cell were measured by a fluorescence microscope 22 hr later.

OVA = assay: Antibody titer to OVA by ELISA in serum of immunized mice (Example 13); format: in vivo; details: mouse serum 2 weeks after final immunization; every other week, 4 times
Method: OVA/BK/γ-PGA complex was constructed using ovalbumin (OVA), benzalkonium chloride (BK) and γ-PGA. OVA alone, benzalkonium chloride and γ-PGA (vector alone), and OVA/BK/γ-PGA complex were administered to mice every other week, 4 times in total for immunization. After 2 weeks from the final immunization, the serum was collected, and the antibody titer to OVA was measured by ELISA. For the measurement of the antibody titer, an HRP-labeled goat-derived anti-mouse IgG antibody was used as the secondary antibody.

[2] = test system: OVA-expressing cancer cell (EG7); assay: Tumor growth of intradermally transplanted OVA-expressing cancer cell after immunization (Example 14); format: in vivo, mice; details: EG7 intradermally transplanted 2 weeks after final immunization
Method: OVA/BK/γ-PGA complex was constructed using ovalbumin (OVA), benzalkonium chloride (BK) and γ-PGA. To the mice were administered OVA alone, benzalkonium chloride and γ-PGA (vector alone), and OVA/BK/γ-PGA complex every other week, 4 times in total. After 2 weeks from the final immunization, OVA-expressing cancer cell (EG7) was intradermally transplanted, and the tumor growth after transplantation was observed.

Substance | cellular uptake by dendritic cell (fluorescence of BSA) [1] | antibody titer to OVA (immunity induction effect) (OVA) | tumor growth suppressive effect [2]
bovine serum albumin [BSA] | not observed | – | –
ovalbumin [ovalbumin antigen alone] | – | did not show an immunity induction effect | did not show a tumor growth suppressive effect
